Source: patent US4025649A, “Acetic acid derivatives having pharmacological activity and compositions containing the same” (priority 1975, dated 1977)

Columns and labels:
[1] = tested on: γ-aminobutyric α-ketoglutaric transaminase (GABA T); test: Inhibition of GABA T in vitro (coupled spectrophotometric test with GABASE); format: biochemical, Pseudomonas fluorescens; details: comparison of Ki with sodium di-n-propylacetate (0.8 m mol/ml)
Experimental: This test was undertaken "in vitro" in the absorption cell of a double-beam U.V. spectrophotometer.
The activity of GABA T was measured by following the reduction rate (v) of NADP^+ which corresponds to the evolution of the optical density at 340 mμ on the spectrophotometer.
Determination of the activity rate of GABA T by the principle hereabove described can be effected with either limiting concentrations or a saturating concentration of one of the substrates, in the present case GABA, in each instance, in the presence of a saturating concentration of the second substrate namely α-ketoglutarate.
This effectiveness is represented by the constant Ki or constant of inhibition which determines the affinity of the enzyme (GABA T) for the inhibitor.
This constant is expressed in units of concentration, in the present case, in m mol per ml and can be determined by plotting all the curves corresponding to 1/v = f (I) for a saturating concentration of GABA and for different limiting concentrations of GABA.
The following experimental procedure was used:
In the absorption cell (optical passage: 1 cm, volume: about 1 ml) the following solutions were introduced.
0.5 ml of a 1.5 molar solution of sodium sulphate
0.05 ml of a molar buffer solution of pH = 7.9
0.05 ml of a 0.1 molar solution of mercapto-ethanol
0.05 ml of a 20 mg/ml solution of NADP^+
0.125 ml of a solution of GABA
0.03 ml of a 40 mg/ml solution of GABASE (namely a bacterial enzyme isolated from Pseudomonas fluorescens containing a mixture of γ-aminobutyric α-ketoglutaric transaminase and succinosemialdehyde dehydrogenase).
0.125 ml of a solution of the compound to be studied.
If the compound of the invention was in the form of a water-insoluble acid, its sodium salt was used after adjustment to a pH of about 7.9 by adding a titrated solution of sodium hydroxide.
Different measurements of optical density were effected by varying the concentration of GABA and the concentration of the compound under study. Control assays were also effected by replacing the solution of the compound to be studied by 0.125 ml of water.
The content of the absorption cell was allowed to incubate for 10 minutes at 30° C. and then the enzymatic reaction was started by adding 0.1 ml of a 0.02 molar solution of α-ketoglutarate in the absorption cell. The final volume was 1.03 ml. The reaction was then followed by spectrophotometric recording of the reduction rate of the NADP^+ at 340 mμ and at 30° C. The optical density was automatically registered every 30 seconds.

[2] = tested on: anoxic seizure induced by gallamine triiodoethylate; test: Antianoxic activity: anoxic seizure induced by gallamine triiodoethylate; format: in vivo, mouse; details: mice; for antianoxic activity compared with sodium di-n-propylacetate: at the doses studied in Table II
Experimental: The injection of a sufficient dose of a synthetic curariform substance such as gallamine triiodoethylate provokes in the mouse paralysis of the diaphragm. The animal then dies through asphyxia.
An intraperitoneal dose of the compound to be studied was administered to batches of 20 mice five minutes before the administration of 16 mg/kg of gallamine triiodoethylate by intraperitoneal route. The dose of the compound to be tested was calculated so that each batch received a higher dose than the preceding batch.
The period of time of survival was registered by controlling cardiac arrest by means of an electrocardiogram.
Under these conditions, an antianoxic effect produces an increase in the period of survival of the animal.

[3] = tested on: pentylenetetrazol-induced seizure; test: Anticonvulsant activity: pentylenetetrazol-induced seizure; format: in vivo; details: for % of protection: i.p. 15 min before 125 mg/kg pentylenetetrazol i.p., deaths noted at 3 hours, dose mg/kg: A 160, B 175, C 185, F 185, G 175; for anticonvulsant activity compared with sodium di-n-propylacetate / duration of anticonvulsant action compared with sodium di-n-propylacetate: pentylenetetrazol test
Experimental: This test is carried out on mice with a view to determining whether the compounds of this invention, when given preventively by intraperitoneal route, are capable at certain doses of protecting some of the animals against the epileptic seizure produced by an adequate and predetermined dose of pentylenetetrazol which would be 100% fatal in the absence of the compound.
The test was carried out on batches of 10 mice. Each batch of animals received an intraperitoneal dose of the compound to be studied so that each batch received a higher dose than the preceding batch. Fifteen minutes after administration of the compound to be tested, the animals were each given 125 mg/kg of pentylenetetrazol by intraperitoneal route. The percentage of deaths was noted 3 hours after injection of this latter compound and the result was expressed as a percentage of protection.

[4] = in vivo; details: ip, mouse, intraperitoneal route
[5] = Solubility of the isolated acid; format: physicochemical; details: free acid
From the text: In this manner, 9.6 g of 3-n-propyl-hexanoic acid were obtained in the form of a colourless, slightly viscous liquid, insoluble in water and soluble in the organic solvents.

[6] = tested on: pentylenetetrazol-induced seizure; test: Anticonvulsant activity: pentylenetetrazol-induced seizure; format: in vivo; details: mice; for % of the animals still protected one hour after administration: 195 mg/kg of Compound B, 210 mg/kg of Compound C
[7] = i.p. 5 min before 16 mg/kg gallamine triiodoethylate i.p., dose mg/kg: A 360, D 250, E 150, F 210, G 355
[8] = mice, 195 mg/kg of Compound B, 210 mg/kg of Compound C

Compound | activity as GABA T inhibitor compared with sodium di-n-propylacetate [1] | antianoxic activity compared with sodium di-n-propylacetate [2] | % of increase in the period of survival in comparison with the controls [2, 7] [%] | % of protection ([3]; mice) [%] | LD50 [4] [mg/kg] | also measured
CCCC(CCC)CC(=O)O [Compound A, 3-n-Propyl-hexanoic acid] | more active | slightly more active | 60 | 100 | 500 | anticonvulsant activity compared with sodium di-n-propylacetate ([3]; mice): more active; % protection against the pentylenetetrazol-induced seizure ([3]; mice, 105 mg/kg by intraperitoneal route): 85%; MTD ([4]; read-out: LDO, maximum tolerated dose (M.T.D.), highest dose which provokes no deaths): > 400 mg/kg; solubility in the organic solvents ([5]; organic solvents): soluble; solubility in water ([5]; water): insoluble
CCCC(CCC)CCC(=O)O [Compound B, 4-n-Propyl-heptanoic acid] | slightly less active |  |  | 85 | 350 | duration of anticonvulsant action compared with sodium di-n-propylacetate ([3]; mice): longer period of time; % protection against the pentylenetetrazol-induced seizure [3, 8]: about 100%; % of the animals still protected one hour after administration [6]: 40%
CCCC(CCC)CCCC(=O)O [Compound C, 5-n-Propyl-octanoic acid] |  |  |  | 85 | 350 | % of the mice protected against the pentylenetetrazol-induced seizure ([3]; 125 mg/kg by intraperitoneal route): 65%; duration of anticonvulsant action compared with sodium di-n-propylacetate ([3]; mice): longer period of time; % protection against the pentylenetetrazol-induced seizure [3, 8]: about 100%; % of the animals still protected one hour after administration [6]: 70%
CC(C)CC(=O)O [Compound D, 3-methyl-butanoic acid] |  | appreciably more active | 73 |  |  | 
CCC(CC)CC(=O)O [Compound E, 3-ethyl-pentanoic acid] |  | appreciably more active | 59 |  |  | 
CCCCC(CCCC)CC(=O)O [Compound F, 3-n-Butyl-heptanoic acid] | slightly less active | slightly more active | 29 | 95 | 300 | anticonvulsant activity compared with sodium di-n-propylacetate ([3]; mice): more active
CCCC(=CC(=O)O)CCC [Compound G, 3-n-Propyl-2-hexenoic acid] | more active | slightly more active | 50 | 75 |  | 
CCCC(CCC)C(=O)[O-].[Na+] [sodium di-n-propylacetate, reference compound] |  |  |  |  |  | % of increase in the period of survival in comparison with the controls ([2]; 330 mg/kg, same conditions (i.p. 5 min before 16 mg/kg gallamine triiodoethylate i.p.)): 40%; % of animals protected against the pentylenetetrazol-induced seizure ([3]; mice, 250 mg/kg, same conditions): 100%; % protection of the animals one hour after administration ([6]; 250 mg/kg): 20%
